ChEMBL document CHEMBL3244272, “Folate antagonists. 15. 2,3-Diamino-6-(2-naphthylsulfonyl)quinazoline and related 2,4-diamino-6-[(phenyl and naphthyl)sulfinyl and sulfonyl]quinazolines, a potent new class of antimetabolites with phenomenal antimalarial activity” (J Med Chem, 1979)
In brackets after ≈: the same amount, converted by molar mass. Activity calls are given as the source filed them. The rule behind the calls is not given here.

What was measured:
Plasmodium berghei [1] = experiment: Antimalarial activity against trophozoite-induced Plasmodium berghei infected in mouse assessed as change in mean survival time at 2.5 mg/kg, sc single dose after 72 hrs of infection; type: functional; details: route subcutaneous
Plasmodium berghei [2] = experiment: Antimalarial activity against trophozoite-induced Plasmodium berghei infected in sc dosed mouse assessed as minimum curative dose; type: functional
Staphylococcus aureus [3] = experiment: Antibacterial activity against Staphylococcus aureus UC-76 assessed as growth inhibition; type: functional
Plasmodium gallinaceum [4] = experiment: Antimalarial activity against sporozoite-induced Plasmodium gallinaceum infected in chick assessed as change in cured at 15 mg/kg, sc single dose; type: functional; details: route subcutaneous
Escherichia coli = experiment: Antibacterial activity against Escherichia coli Vogel assessed as growth inhibition; type: functional
Pseudomonas aeruginosa = experiment: Antibacterial activity against Pseudomonas aeruginosa 28 assessed as growth inhibition; type: functional
Staphylococcus aureus [5] = experiment: Antibacterial activity against Staphylococcus aureus S18713 assessed as growth inhibition; type: functional
Plasmodium berghei [6] = experiment: Antimalarial activity against trophozoite-induced Plasmodium berghei infected in mouse assessed as change in mean survival time at 1.25 mg/kg, sc single dose after 72 hrs of infection; type: functional; details: route subcutaneous
Plasmodium gallinaceum [7] = experiment: Antimalarial activity against sporozoite-induced Plasmodium gallinaceum infected in chick assessed as change in cured at 60 mg/kg, sc single dose; type: functional; details: route subcutaneous
Plasmodium berghei [8] = experiment: Antimalarial activity against trophozoite-induced Plasmodium berghei infected in mouse assessed as change in mean survival time at 20 mg/kg, sc single dose after 72 hrs of infection; type: functional; details: route subcutaneous
Shigella sonnei = experiment: Antibacterial activity against Shigella sonnei C-10 assessed as growth inhibition; type: functional
Enterococcus faecalis = experiment: Antibacterial activity against Streptococcus faecalis MGH-2 assessed as growth inhibition; type: functional
Plasmodium gallinaceum [9] = experiment: Antimalarial activity against sporozoite-induced Plasmodium gallinaceum infected in chick assessed as change in cured at 120 mg/kg, sc single dose; type: functional; details: route subcutaneous
Plasmodium gallinaceum [10] = experiment: Antimalarial activity against sporozoite-induced Plasmodium gallinaceum infected in chick assessed as change in cured at 240 mg/kg, sc single dose; type: functional; details: route subcutaneous
[11] = tested on: Mycobacterium tuberculosis; experiment: Antibacterial activity against Mycobacterium tuberculosis H37Rv assessed as growth inhibition; type: functional
Plasmodium berghei [12] = experiment: Antimalarial activity against trophozoite-induced Plasmodium berghei infected in mouse assessed as change in mean survival time at 40 mg/kg, sc single dose after 72 hrs of infection; type: functional; details: route subcutaneous
Plasmodium gallinaceum [13] = experiment: Antimalarial activity against sporozoite-induced Plasmodium gallinaceum infected in chick assessed as change in cured at 30 mg/kg, sc single dose; type: functional; details: route subcutaneous
Plasmodium berghei [14] = experiment: Antimalarial activity against trophozoite-induced Plasmodium berghei infected in mouse assessed as change in mean survival time at 10 mg/kg, sc single dose after 72 hrs of infection; type: functional; details: route subcutaneous
Plasmodium berghei [15] = experiment: Antimalarial activity against trophozoite-induced Plasmodium berghei infected in mouse assessed as change in mean survival time at 5 mg/kg, sc single dose after 72 hrs of infection; type: functional; details: route subcutaneous
Plasmodium gallinaceum [16] = experiment: Antimalarial activity against trophozoite-induced Plasmodium gallinaceum infected in chick assessed as mean survival time at 160 mg/kg, sc single dose (reference value: 4 days); type: functional; details: route subcutaneous
Plasmodium gallinaceum [17] = experiment: Antimalarial activity against trophozoite-induced Plasmodium gallinaceum infected in chick assessed as cured at 160 mg/kg, sc single dose; type: functional, organism-based; design: dose 160 mg/kg
Gallus gallus [18] = experiment: Toxicity in trophozoite-induced Plasmodium gallinaceum infected in chick assessed as death at 160 mg/kg, sc single dose measured within 48 hrs; type: organism-based; design: dose 160 mg/kg, route subcutaneous; details: chicken, in vivo
Gallus gallus [19] = experiment: Toxicity in trophozoite-induced Plasmodium gallinaceum infected in chick assessed as death at 80 mg/kg, sc single dose measured within 48 hrs; type: organism-based; design: dose 80 mg/kg, route subcutaneous; details: chicken, in vivo
Plasmodium gallinaceum [20] = experiment: Antimalarial activity against trophozoite-induced Plasmodium gallinaceum infected in chick assessed as mean survival time at 20 mg/kg, sc single dose (reference value: 4 days); type: functional; details: route subcutaneous
Plasmodium gallinaceum [21] = experiment: Antimalarial activity against trophozoite-induced Plasmodium gallinaceum infected in chick assessed as cured at 5 mg/kg, sc single dose; type: functional, organism-based; design: dose 5 mg/kg
Plasmodium gallinaceum [22] = experiment: Antimalarial activity against trophozoite-induced Plasmodium gallinaceum infected in chick assessed as mean survival time at 5 mg/kg, sc single dose (reference value: 4 days); type: functional; details: route subcutaneous
Gallus gallus [23] = experiment: Toxicity in trophozoite-induced Plasmodium gallinaceum infected in chick assessed as death at 5 mg/kg, sc single dose measured within 48 hrs; type: organism-based; design: dose 5 mg/kg, route subcutaneous; details: chicken, in vivo
Gallus gallus [24] = experiment: Toxicity in trophozoite-induced Plasmodium gallinaceum infected in chick assessed as death at 10 mg/kg, sc single dose measured within 48 hrs; type: organism-based; design: dose 10 mg/kg, route subcutaneous; details: chicken, in vivo
Gallus gallus [25] = experiment: Toxicity in trophozoite-induced Plasmodium gallinaceum infected in chick assessed as death at 40 mg/kg, sc single dose measured within 48 hrs; type: organism-based; design: dose 40 mg/kg, route subcutaneous; details: chicken, in vivo
Plasmodium gallinaceum [26] = experiment: Antimalarial activity against trophozoite-induced Plasmodium gallinaceum infected in chick assessed as mean survival time at 40 mg/kg, sc single dose (reference value: 4 days); type: functional; details: route subcutaneous
Plasmodium gallinaceum [27] = experiment: Antimalarial activity against trophozoite-induced Plasmodium gallinaceum infected in chick assessed as mean survival time at 10 mg/kg, sc single dose (reference value: 4 days); type: functional; details: route subcutaneous
Plasmodium gallinaceum [28] = experiment: Antimalarial activity against trophozoite-induced Plasmodium gallinaceum infected in chick assessed as mean survival time at 2.5 mg/kg, sc single dose (reference value: 4 days); type: functional; details: route subcutaneous
Gallus gallus [29] = experiment: Toxicity in trophozoite-induced Plasmodium gallinaceum infected in chick assessed as death at 2.5 mg/kg, sc single dose measured within 48 hrs; type: organism-based; design: dose 2.5 mg/kg, route subcutaneous; details: chicken, in vivo
Plasmodium gallinaceum [30] = experiment: Antimalarial activity against trophozoite-induced Plasmodium gallinaceum infected in chick assessed as cured at 2.5 mg/kg, sc single dose; type: functional, organism-based; design: dose 2.5 mg/kg
Gallus gallus [31] = experiment: Toxicity in trophozoite-induced Plasmodium gallinaceum infected in chick assessed as death at 20 mg/kg, sc single dose measured within 48 hrs; type: organism-based; design: dose 20 mg/kg, route subcutaneous; details: chicken, in vivo

Compound	MST (Plasmodium berghei [1])	MCD (Plasmodium berghei [2])	MIC (Staphylococcus aureus [3])	MIC (Escherichia coli)	MIC (Pseudomonas aeruginosa)	MIC (Staphylococcus aureus [5])	MST (Plasmodium berghei [6])	MST (Plasmodium berghei [8])	MIC (Shigella sonnei)	MIC (Enterococcus faecalis)	MST (Plasmodium berghei [12])	MST (Plasmodium berghei [14])	MST (Plasmodium berghei [15])	Activity (Gallus gallus [18])	further results
Nc1nc(N)c2cc(S(=O)(=O)c3cc(Cl)cc(Cl)c3)ccc2n1	0.7 days	160 mg/kg	2.5 µg/mL (≈ 6.77 µM)	> 25 µg/mL	> 25 µg/mL	10 µg/mL (≈ 27.1 µM)	0.3 days	9.7 days	> 25 µg/mL	1 µg/mL (≈ 2.71 µM)	11.3 days	6.9 days	5.9 days	–	MST (Plasmodium gallinaceum [4]): 2.2 days; MST (Plasmodium gallinaceum [7]): 7 days; MST (Plasmodium gallinaceum [9]): 7 days; MST (Plasmodium gallinaceum [10]): 7 days; MIC [11]: > 25 µg/mL; MST (Plasmodium gallinaceum [13]): 6.3 days
COc1ccc(S(=O)(=O)c2ccc3nc(N)nc(N)c3c2)cc1	–	20 mg/kg	2.5 µg/mL (≈ 7.57 µM)	2.5 µg/mL (≈ 7.57 µM)	> 25 µg/mL	2.5 µg/mL (≈ 7.57 µM)	–	11.4 days	2.5 µg/mL (≈ 7.57 µM)	< 0.25 µg/mL	15.9 days	4.9 days	–	Toxic	MST (Plasmodium gallinaceum [16]): 14.8 days; Activity (Plasmodium gallinaceum [17]): Active
Nc1nc(N)c2cc([S+]([O-])c3ccc(Cl)cc3)ccc2n1 (configuration not stated)	6 days	40 mg/kg	< 0.25 µg/mL	1.5 µg/mL (≈ 4.71 µM)	> 25 µg/mL	< 0.25 µg/mL	4.2 days	–	20 µg/mL (≈ 62.7 µM)	< 0.25 µg/mL	–	7.3 days	4.8 days	Toxic	Activity (Gallus gallus [19]): Toxic; MST (Plasmodium gallinaceum [20]): 23 days; Activity (Plasmodium gallinaceum [21]): Active; MST (Plasmodium gallinaceum [22]): 15.8 days; Activity (Gallus gallus [23]): Toxic; Activity (Gallus gallus [24]): Toxic; Activity (Gallus gallus [25]): Toxic; MST (Plasmodium gallinaceum [26]): 27.5 days; MST (Plasmodium gallinaceum [27]): 23 days; MST (Plasmodium gallinaceum [28]): 4 days; Activity (Gallus gallus [29]): Toxic; Activity (Plasmodium gallinaceum [30]): Active; Activity (Gallus gallus [31]): Toxic
